Laboratory results reported in publication PMC11474028, “Lipopeptide antibiotics disrupt interactions of undecaprenyl phosphate with UptA” (Proceedings of the National Academy of Sciences of the …, 2024).
pKd: −log10 of the molar value.

What was measured:
UptA [1] = target: T1, UptA (Bacillus subtilis, UniProt O31823); test: Native MS of antibiotic binding to UptA; conditions: 2.5 µM UptA, 10 µM C55-P, antibiotic up to 100 µM (polymyxins 100 µM), 0.05% LDAO, 200 mM ammonium acetate, 75 V
Experimental: We next investigate how UptA and its complex with C55-P interact with a range of cell-wall targeting antibiotics including the lipopeptides daptomycin and amphomycin. […] We investigated whether daptomycin affects C55-P binding to UptA by recording spectra for solutions containing 2.5 µM UptA, 10 µM C55-P, and different concentrations of daptomycin.
(§1) Amphomycin and derivatives are known to kill bacteria by forming complexes with free C55-P ([46]), however, whether or not this involves a direct interaction with a protein cellular target is not known. We therefore investigated how amphomycin affects the UptA:C55-P complex. We recorded spectra for solutions containing 2.5 µM UptA, 10 µM C55-P and then equilibrated aliquots with increasing concentrations of amphomycin.
The amphiphilic nature of daptomycin and amphomycin raises the possibility that these lipopeptide antibiotics may promiscuously bind to UptA in a nonspecific manner. We probe this possibility by recording spectra for UptA:C55-P solutions in the presence of 100 µM polymyxin B and 100 µM polymyxin E. These polymyxins are membrane-disrupting lipopeptides that target the outer membrane lipopolysaccharides in Gram-negative bacteria ([47]) but without a known affinity for C55-P or UptA.
To this end, we prepared UptA:C55-P mixtures and then equilibrated aliquots with bacitracin and vancomycin.
(§2) Detailed experimental procedures are provided in SI Appendix. Briefly, UptA (wild type and mutants) was expressed in E. coli C43(DE3) cells (Lucigen) with GFP fusion on the C-terminus and solubilized from the membrane fraction by n-dodecyl-β-D-maltopyranoside (DDM). After purification by affinity chromatography, the GFP was cleaved by TEV protease and removed, and UptA was further purified by size-exclusion chromatography in a buffer containing 20 mM Tris-HCl (pH 8.0), 200 mM NaCl, 0.02% DDM. Before measurements, proteins were buffer-exchanged into 0.05% LDAO, 200 mM ammonium acetate at the desired pH using a centrifugal buffer exchange device (Micro Bio-Spin 6, Bio-Rad). Stock solutions of lipids were prepared from chloroform/methanol solution by evaporating aliquots of known volume in a SpeedVac. After drying, the lipid films were weighed and resuspended to a final concentration of 0.5 mM in 200 mM ammonium acetate and 0.05% LDAO by vertexing. Stock solutions of 0.5 mM amphomycin, aspartocin D, daptomycin, polymyxin B, polymyxin E, and bacitracin were made in the same buffer. All experiments were repeated three times from newly prepared stock solutions. Native mass spectrometry was performed on a Q-Exactive hybrid quadrupole-Orbitrap mass spectrometer (Thermo Fisher Scientific, Bremen, Germany), and lipid identification was performed on an Orbitrap Eclipse Tribrid mass spectrometer (Thermo). […]

UptA:C55-P complex = test: Native MS of UptA:C55-P complex in the presence of antibiotics; type: binding, Bacillus subtilis; conditions: 2.5 µM UptA, 10 µM C55-P, 0 to 100 µM antibiotic, 75 V; mean of three independent replicates
Experimental: as §1
(A) Mass spectra (6+ charge state) for solutions containing 2.5 µM UptA and 10 µM C55-P incubated with 0 to 100 µM amphomycin. (B) Relative intensity of C55-P bound to UptA in the presence of amphomycin and daptomycin. The bar represents the mean of three independent replicates shown as data points and error bars are SD. […] (C) Fraction of C55-P bound to UptA in the presence of cell wall targeting antibiotics. Each sample contains 2.5 µM UptA, 10 µM C55-P and 100 µM of indicated antibiotic, and spectra were acquired using the same instrument settings and collisional activation of 75 V. The bar represents the mean of three independent replicates shown as data points, and the error bar represents SD. […]
as §2

UptA [2] = target: T1, UptA; test: biochemical; type: binding; conditions: for binding to UptA by lipid chain length (in words): 4 µM UptA, 10-fold molar excess (40 µM) of lipid, pH 8.0, 200 mM ammonium acetate, 0.05% LDAO
Experimental: We explored the binding affinity of UptA toward C55-P by recording mass spectra for solutions containing 2.5 µM UptA and 0 to 40 µM C55-P in 200 mM ammonium acetate, 0.05% LDAO at pH 8.0. […] Further increase in the concentration of C55-P enhanced the intensity of the UptA:C55-P complex, together with the emergence of additional binding events (Fig. 2A). We deconvoluted the spectra ([34]) to extract mean relative intensities of bound and unbound forms of UptA in the spectral series.
To investigate the binding selectivity of UptA for monophosphate (C55-P) versus diphosphate (C55-PP) forms of the lipid carrier, we performed comparative binding assays. First, we recorded mass spectra for a mixture of UptA with increasing concentrations of C55-PP (SI Appendix, Fig. S3). […] We then fit the data to Hill equation to obtain an apparent Kd for this system.
UptA is a member of the DedA family of transporters whose cellular functions are potentially driven by proton-motive force and provide conditional fitness to bacteria under alkaline conditions ([25], [26], [36]). […] To this end, we equilibrated C55-P with UptA at a protein/ligand molar ratio of 1:4 in a buffer of the same composition but at pH 8.0 and 5.0. […] As a negative control, we tested for pH sensitivity of C55-P binding to MraY, the latter being the downstream enzyme in the peptidoglycan pathway that couples UM5 to C55-P. To this end, we equilibrated MraY and C55-P at a molar ratio of 1:4 in a buffer of pH 8.0 and pH 5.0.
Next, we investigated the chain length selectivity of UptA by testing its interaction with geranylgeranyl phosphate (C20-P), hexaprenyl phosphate (C30-P), and C55-P; the latter representing the native form of the lipid carrier in the model organisms B. subtilis and E. coli ([39]). For this experiment, we incubated 4 µM UptA with a 10-fold molar excess of C20-P, C30-P, and C55-P at pH 8.0 and recorded spectra under the same conditions. […] The length and stereochemistry of lipid tails can influence their interactions with membrane proteins ([40]).
Detailed experimental procedures are provided in SI Appendix. Briefly, UptA (wild type and mutants) was expressed in E. coli C43(DE3) cells (Lucigen) with GFP fusion on the C-terminus and solubilized from the membrane fraction by n-dodecyl-β-D-maltopyranoside (DDM). After purification by affinity chromatography, the GFP was cleaved by TEV protease and removed, and UptA was further purified by size-exclusion chromatography in a buffer containing 20 mM Tris-HCl (pH 8.0), 200 mM NaCl, 0.02% DDM. Before measurements, proteins were buffer-exchanged into 0.05% LDAO, 200 mM ammonium acetate at the desired pH using a centrifugal buffer exchange device (Micro Bio-Spin 6, Bio-Rad). Stock solutions of lipids were prepared from chloroform/methanol solution by evaporating aliquots of known volume in a SpeedVac. After drying, the lipid films were weighed and resuspended to a final concentration of 0.5 mM in 200 mM ammonium acetate and 0.05% LDAO by vertexing.

UptA [3] = target: T1, UptA; test: Native MS of phospholipid binding to UptA; conditions: for UptA-lipid complexes formed (stoichiometry, in words): 4 µM UptA with 10 µM lipid, native MS
Source text: Proteins belonging to the DedA family are a widespread family of transporters and are proposed to flip diverse lipids, including carrier lipids and membrane phospholipids. We therefore probed the interaction of UptA with membrane phospholipids to understand whether the latter could modulate its function. For this purpose, we selected anionic phosphatidylglycerols (PG) and zwitterionic phosphatidylethanolamines (PE), representing the major classes of phospholipid headgroups found in B. subtilis ([41], [42]). We recorded mass spectra of solutions containing 4 µM UptA incubated with 10 µM a15:0-i15:0 PE and 10 µM a15:0-i15:0 PG (a15:0, anteiso-pentadecanoic acid; i15:0, iso-pentadecanoic acid). The fatty acid composition of these lipids closely mimics those of native B. subtilis lipids (see below). The resulting spectra display peaks corresponding to UptA in apo and lipid-bound forms in both cases (Fig. 4 A and B). […] We therefore hypothesize that UptA interacts more favorably with PG than with PE.
To verify the lipid binding preference of UptA with more native-like lipids, we prepared lipid extracts from B. subtilis membranes (Materials and Methods). We then incubate an aliquot of the resulting crude lipids (SI Appendix, Fig. S8) with UptA. The spectra yielded peaks assigned to UptA in complex with cardiolipins (~1,326 Da) and a range of phospholipids, predominantly 694 Da, 721 Da, 748 Da, and 776 Da species (Fig. 4 D and E). To identify these lipids, we performed tandem MS/MS, isolating the lipid species and subjecting it to collisional activation. […] The fatty acid fragments are mixed populations, predominantly 15:0-15:0, 15:0-17:0, 16:0-16:0, and 16:0-18:1 (SI Appendix, Fig. S9) which are the typical fatty acids from B. subtilis membrane phospholipids ([42]). We therefore conclude that UptA interacts more favorably with the anionic cardiolipins and phosphatidylglycerols than with the zwitterionic phosphatidylethanolamines in the membrane lipid extracts.
as §2
Lipid extracts from B. Subtilis
B. subtilis strain 168 (ATCC 23857) was cultivated in […] LB media at 37 °C until OD600 nm 1.2 under aurobic conditions. Cells were harvested by centrifugation at 4,000 g for 20 minutes and resuspended in 20 mM Tris-HCl (pH 8.0), 150 mM NaCl. Cells were lysed by 5-6 passes through a microfluidizer at 20,000 psi. The lysates were clarified by centrifugation at 4,000 g for 10 minutes, and the totoal membrane was pelleted at 120,000 g for 1 h. The membrane pellet was ressupended […]

T1 sequence (O31823 whole entry): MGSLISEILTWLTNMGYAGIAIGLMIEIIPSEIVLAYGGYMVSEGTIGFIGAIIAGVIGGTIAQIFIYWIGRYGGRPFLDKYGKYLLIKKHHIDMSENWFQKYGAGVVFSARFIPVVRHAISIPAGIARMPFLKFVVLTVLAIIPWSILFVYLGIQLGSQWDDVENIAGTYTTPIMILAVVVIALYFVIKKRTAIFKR

Molecule: vancomycin
- binding of antibiotic to UptA (in words) (UptA [1]): bind to UptA but with very low intensities
- effect of antibiotic on UptA:C55-P complex (in words) (UptA:C55-P complex): no observable impact on C55-P binding

Molecule: polymyxin B
- binding of antibiotic to UptA (in words) (UptA [1]): do not bind to UptA
- effect of antibiotic on UptA:C55-P complex (in words) (UptA:C55-P complex): attenuation of C55-P binding to UptA (SI Appendix, Fig. S10), but this effect is less significant compared to the impact of amphomycin analogs

Molecule: CC(C)=CCCC(C)=CCCC(C)=CCCC(C)=CCCC(C)=CCCC(C)=CCOP(=O)(O)O [C30-P, hexaprenyl phosphate]
- binding to UptA by lipid chain length (in words) (UptA [2]): higher binding affinity of UptA to C30-P compared to C20-P

Molecule: polymyxin E
- binding of antibiotic to UptA (in words) (UptA [1]): do not bind to UptA
- effect of antibiotic on UptA:C55-P complex (in words) (UptA:C55-P complex): attenuation of C55-P binding to UptA (SI Appendix, Fig. S10), but this effect is less significant compared to the impact of amphomycin analogs

Molecule: CC(C)=CCC/C(C)=C/CC/C(C)=C/CC/C(C)=C/COP(=O)(O)O [C20-P, geranylgeranyl phosphate]
- binding to UptA by lipid chain length (in words) (UptA [2]): low-intensity peaks corresponding by mass to UptA:C20-P complexes, leaving most of the protein in the apo form

Molecule: CC(C)=CCC/C(C)=C/CC/C(C)=C/CC/C(C)=C\CC/C(C)=C\CC/C(C)=C\CC/C(C)=C\CC/C(C)=C\CC/C(C)=C\CC/C(C)=C\CC/C(C)=C\COP(=O)(O)OP(=O)(O)O [C55-PP, undecaprenyl diphosphate]
- selectivity of UptA for C55-P versus C55-PP (in words) (UptA [2]; native MS, 200 mM ammonium acetate, pH 8, 0.05% LDAO): UptA bind C55-PP but with lesser intensities compared to C55-P
- pKd (UptA [2]; read-out: apparent Kd for the binding of one ligand molecule (1×) to UptA): 4.82

Molecule: CC[C@@H](C)CCCCCCCCCCC(=O)OC[C@H](COP(=O)([O-])OCC(O)CO)OC(=O)CCCCCCCCCCCC(C)C.[Na+] (stereo partly shown) [a15:0-i15:0 PG]
- mean relative intensity of UptA in complex with phospholipid, comparison (in words) (UptA [3]; 4 µM UptA with 10 µM lipid (stated for a15:0-i15:0 lipids), mean of three independent replicates): higher than for a15:0-i15:0 PE
- UptA-lipid complexes formed (stoichiometry, in words) (UptA [3]): 1:1 and 1:2 protein-lipid complexes

Molecule: CCC(C)CCCCCCCCCCC(=O)OC[C@H](COP(=O)(O)OCCN)OC(=O)CCCCCCCCCCCC(C)C (stereo partly shown) [a15:0-i15:0 PE]
- UptA-lipid complexes formed (stoichiometry, in words) (UptA [3]): only a 1:1 complex
